Assay results from patent publication US20050227978A1, “Fibrosis inhibitor” (Sumitomo Pharmaceuticals Co., Ltd., priority 2002, published 2005).

Experiments:
TGF-β = experiment: Effects on the extracellular matrix (proteoglycan) production by TGF-β in NRK-49F fibroblasts; format: cell-based; conditions: Rattus norvegicus, NRK-49F cells, 3 ng/ml TGF-β, [35S]-proteoglycan radioactivity, 24 hours, read-out: TGF-β inhibitory rate (%); for inhibition at 3 µM: test compound 3 μM; for inhibition at 10 µM: test compound 10 μM
Method: Effects on the Extracellular Matrix Production by TGF-β
The effect of the compounds of Examples on the production of proteoglycan when TGF-β was added to fibroblast was evaluated.
NRK-49F cells (rat fibroblast) were cultured in Dulbecco's Modified Eagle Medium (DMEM: manufactured by GIBCO) containing 10% bovine serum, and used in this experiment. The cells were put into a 96-well plate in an amount of 2.5×10^4 cells/100 μl/well. On the next day, the medium in the plate was exchanged to the DMEM medium containing 3 ng/ml of TGF-β (manufactured by Nacalai Tesque, Inc.), 0.5 μCi/well of [^35S]-Na2SO4, and a test compound. Twenty-four hours thereafter, the supernatant was collected, and subjected to SDS-polyacrylamide gel electrophoresis (SDS-PAGE) in a conventional manner. The gel after electrophoresis was dried with a gel drier, and exposed to an imaging plate, which was analyzed with BSA2000 (manufactured by Fuji Photo Film). The radioactivity of proteoglycan to be electrophoresed was measured, and the TGF-β inhibitory rate was calculated by the following equation. TGF-β Inhibitory rate (%)=(A−B)×100/(A−C) • A: Radioactivity in the presence of TGF-β without a test compound • B: Radioactivity in the presence of TGF-β and a test compound • C: Radioactivity in the absence of TGF-β and a test compound

[1] = tested on: rat Thy-1 nephritis model; experiment: Evaluation using rat Thy-1 nephritis model (kidney fibrosis); format: in vivo; conditions: 7 days
Method: The anti-fibrosis activity was evaluated on the compounds of Examples 9, 14, 110, 120 and 136 by using a rat Thy-1 nephritis model, which is an animal model for kidney fibrosis (cf., “Kidney and Dialysis”, vol. 31, p. 343-347 (1991)). Thy-1 is one of the surface antigens of thymocyte.
Male Wister rats were purchased from Charles River Japan, Inc. at an age of 3-weeks old. After pre-feeding, the animals were used in this experiment when their body weights became about 100 g. The animals were kept in a room being controlled at a temperature of 24±2° C. under a humidity of 55±10%, with an illumination cycle of light on (8:00 to 20:00). The animals were given solid diet pellets (CRF-1, Oriental Yeast Co. Ltd.) and sterilized tap water ad libitum.
Anti-Thy-1 monoclonal antibody (OX-7, Biosource International Inc.) was administered to the rats at a dose of 50 μg/100 g of body weight at the tail vein. Then, the animals were grouped into the vehicle-treated group (n=8) and the test compound-treated group (n=8) with respect to the body weight. From the day of administration of anti-Thy-1 monoclonal antibody, a test compound, which was suspended in a 0.5% carboxymethylcellulose (vehicle), […] To the vehicle-treated group, a vehicle was administered likewise.
After the administration for 7 days, the right kidney of the rats was taken out, and the content of hydroxyproline therein, which was an index for organ fibrosis, was measured according to the method of J. F. Woessner, et al. (Arch. Biochem. Biophys. Vol. 93 p440 (1961)). That is, the kidney was homogenized, and 500 μL of the suspension was dried, and thereto was added a 4N aqueous sodium hydroxide solution (225 μL). The mixture was heated on a heat block at 100° C. for 15 minutes to hydrolyze proteins, and the mixture was neutralized with a 1.4 M aqueous citric acid solution (275 μL). The mixture was centrifuged at 3000 rpm for 10 minutes at room temperature, and the supernatant was collected as a kidney extract. To the extract were added Chloramine T solution and an Ehrlich solution (which was prepared by adding n-propanol (31 ml) to p-dimethylaminobenzaldehyde (7.5 g), and further slowly adding thereto a 60% perchloric acid (13 mL), and followed by adjusting the volume to 50 ml by distilled water), and the mixture was reacted at 65° C. for 15 minutes. The OD 550 (absorbance at 550 nm) was measured, and the concentration of hydroxyproline was calculated from the analytical curve of hydroxyproline. The content of hydroxyproline thus obtained was adjusted with respect to the protein amount in the kidney extract.
Each value was expressed in average value±standard deviation of 8 animals in each group.

SMILES | inhibition at 3 µM (TGF-β) [%] | inhibition at 10 µM (TGF-β) [%] | further results
Cc1ccc(C(=O)c2cccn2Cc2cnc3ccccc3c2)cc1 [Example 2] | 33 | 61 | 
Cc1ccc(C(=O)c2cccn2Cc2ccnc3ccccc23)cc1 [Example 3] | 25 | 38 | 
Cc1ccc(Cc2cccn2Cc2ccc3ccccc3n2)cc1 [Example 5] | 6 | 51 | 
Cc1ccc(S(=O)(=O)n2cccc2C(O)c2cnc3ccccc3c2)cc1 (centres unmarked) [Example 6, (1-p-toluenesulfonyl-1H-pyrrol-2-yl)(3-quinolyl)methanol] | 66 | 88 | 
Cc1ccc(Cn2cccc2Cc2cnc3ccccc3c2)cc1 [Example 7, 1-(4-methylbenzyl)-2-(3-quinolylmethyl)-1H-pyrrole] | 44 | 78 | 
Cc1ccc(C(=O)c2cccn2Cc2cnc3cccnc3n2)cc1 [Example 8] | 16 | 46 | 
Cc1ccc(C(=O)c2cccn2C/C=C/c2ccc(Cl)cc2C(=O)O)cc1 [Example 9] | 88 | 91 | Hydroxyproline content ([1]; 15 mg/kg oral once a day, right kidney, Table 2: normal rat 6.7 ± 1.6, vehicle 8.7 ± 2.0, mean ± SD, n=8): 7.2 ± 2.1 μg/mg protein
C=CCOc1ccc(C(=O)c2cccn2Cc2cnc3ccccc3c2)cc1 [Example 10] | 63 | 86 | 
O=C(c1ccc(O)cc1)c1cccn1Cc1cnc2ccccc2c1 [Example 14] | 40 | 56 | Hydroxyproline content ([1]; 150 mg/kg oral once a day, right kidney, Table 2: normal rat 6.7 ± 1.6, vehicle 8.7 ± 2.0, P < 0.05 vs vehicle): 6.3 ± 1.3 μg/mg protein
Cc1ccc(C(=O)c2cccn2C/C=C/c2ccccc2C(=O)O)cc1 [Example 19] | 51 | 72 | 
Cc1ccc(C(O)c2cccn2Cc2cnc3ccccc3c2)cc1 (centres unmarked) [Example 20, [1-(3-quinolylmethyl)-1H-pyrrol-2-yl](4-methylphenyl)methanol] | 61 | 90 | 
Cc1ccc(Cc2cccn2Cc2cnc3ccccc3c2Cl)cc1 [Example 25] | 6 | 74 | 
Cc1ccc(C(=O)c2cccn2Cc2cnc3cccc(C(N)=O)c3c2)cc1 [Example 31] | 34 | 38 | 
Cc1ccc(C(=O)c2cccn2Cc2cnc3cc(Cl)ccc3c2)cc1 [Example 33] | 74 | 91 | 
Cc1ccc(C(=O)c2cccn2Cc2cnc3c(C#N)cccc3c2)cc1 [Example 38] | 51 | 40 | 
Cc1ccc(C(=O)c2cccn2Cc2cnc3cccc(C(=O)O)c3c2)cc1 [Example 43] | 31 | 66 | 
Cc1ccc(C(=O)c2cccn2Cc2cnc3c(/C=C/C(=O)N(C)C)cccc3c2)cc1 [Example 61] | 15 | 86 | 
Cc1ccc(C(=O)c2cccn2Cc2cnc3ccccc3n2)cc1 [Example 64] | 43 | 75 | 

SMILES | inhibition at 3 µM (TGF-β) [%] | inhibition at 10 µM (TGF-β) [%] | further results
Cc1ccc(C(=O)c2cccn2Cc2cnc3c(C#N)cccc3n2)cc1 [Example 66] | 88 | 94 | 
Cc1ccc(C(=O)c2cccn2Cc2cnc3cc(C#N)ccc3n2)cc1 [Example 67] | 55 | 75 | 
Cc1ccc(C(=O)c2cccn2Cc2cnc3ncccc3n2)cc1 [Example 73] | 70 | 85 | 
CN(C)C(=O)c1ccc(C(=O)c2cccn2Cc2cnc3ccccc3c2)cc1 [Example 76] | 56 | 58 | 
Cc1ccc(C(=O)c2cccn2Cc2cnc3ccccc3c2)cc1OCC(O)CO (centres unmarked) [Example 83] | 42 | 47 | 
Cc1ccc(C(=O)c2cccn2Cc2cnc3ccccc3c2)c(O)c1 [Example 85] | 29 | 75 | 
COc1ccc(C(=O)c2cccn2Cc2cnc3ccccc3n2)cc1 [Example 91] | 66 | 73 | 
O=C(c1ccc(OCCN2CCOCC2)cc1)c1cccn1Cc1cnc2ccccc2c1 [Example 97] | 58 | 75 | 
COC(=O)c1cc(Cl)ccc1/C=C/Cn1cccc1C(=O)c1ccc(O)cc1 [Example 103] | 55 | 90 | 
Cc1ccc(C(=O)c2cccn2Cc2cnc3nccnc3c2)cc1 [Example 105] | 14 | 48 | 
Cc1ccc(C(=O)c2cc(C)cn2Cc2cnc3ccccc3c2)cc1 [Example 107] | 90 | 95 | 
Cc1ccc(C(=O)c2c(C)ccn2Cc2cnc3ccccc3c2)cc1 [Example 108] | 42 | 56 | 
COc1ccc(C(=O)c2cc(C)cn2C/C=C/c2ccc(Cl)cc2C(=O)O)cc1 [Example 110] |  |  | Hydroxyproline content ([1]; 1.5 mg/kg oral, kidney, Table 3: normal rat 8.2 ± 0.8, vehicle 11.8 ± 0.6, P < 0.01 vs vehicle): 10.1 ± 0.8 μg/mg protein; Hydroxyproline content ([1]; 5 mg/kg oral, kidney, Table 3: normal rat 8.2 ± 0.8, vehicle 11.8 ± 0.6, P < 0.01 vs vehicle): 9.5 ± 0.8 μg/mg protein; Hydroxyproline content ([1]; 15 mg/kg oral, kidney, Table 3: normal rat 8.2 ± 0.8, vehicle 11.8 ± 0.6, P < 0.01 vs vehicle): 9.7 ± 0.7 μg/mg protein; Hydroxyproline content ([1]; 50 mg/kg oral, kidney, Table 3: normal rat 8.2 ± 0.8, vehicle 11.8 ± 0.6, P < 0.01 vs vehicle): 9.5 ± 0.6 μg/mg protein
COC(=O)c1cc(Cl)ccc1/C=C/Cn1cc(C)cc1C(=O)c1ccc(O)cc1 [Example 111] | 90 | 118 | 
Cc1ccc(C(=O)c2cc(C=O)cn2C/C=C/c2ccc(Cl)cc2C(=O)O)cc1 [Example 112] | 23 | 73 | 
Cc1ccc(C(=O)c2cccn2C/C=C/c2ccc(Cl)cc2C(=O)NS(C)(=O)=O)cc1 [Example 115] | 46 | 56 | 
CNC(=O)c1cc(Cl)ccc1/C=C/Cn1cccc1C(=O)c1ccc(C)cc1 [Example 117] | 71 | 83 | 
